Measured values taken from ChEMBL document CHEMBL2016447, “Cyclopropyl Carboxamides: A New Oral Antimalarial Series Derived from the Tres Cantos Anti-Malarial Set (TCAMS)” (ACS Med Chem Lett, 2011).
Values after ≈ are worked out from the molar mass of the structure shown. Active and inactive are the calls of the source. No cut-off for these calls is given here.

Assays:
[1] = Half life in mouse liver microsomes at 100 uM by HPLC analysis; type: ADME, Microsome
Plasmodium falciparum [2] = assay: Antiplasmodial activity against Plasmodium falciparum 3D7 infected in human erythrocytes assessed as inhibition of [3H]hypoxanthine incorporation after 24 hrs by microbeta counter; type: functional, organism-based
[3] = Half life in human liver microsomes at 100 uM by HPLC analysis; type: ADME, Microsome
Liver = assay: Intrinsic clearance in mouse liver microsomes assessed per gram of protein at 100 uM by HPLC analysis; type: ADME, Microsome
Liver microsomes = assay: Intrinsic clearance in human liver microsomes assessed per gram of protein at 100 uM by HPLC analysis; type: ADME, Microsome
[4] = Lipophilicity, log D of the compound by chromatographic hydrophobicity index assay; type: physicochemical
Plasmodium falciparum [5] = assay: Antiplasmodial activity Plasmodium falciparum 3D70087/N9 infected in NODscidIL2Rgammac-/- mouse assessed as reduction of parasitemia administered 3 days after infection measured on day 3 to 7 by flow cytometry; type: functional; conditions: 3D70087/N9, 72 h
Mus musculus [6] = assay: AUC (0 to t) in CD1 mouse at 2 mg/kg, iv administered with 3% solutol, 7% PEG in saline by LC/MS analysis; type: ADME, organism-based, Plasma; parameters: dose 2 mg/kg, route intravenous; conditions: in vivo
[7] = Oral bioavailability in CD1 mouse at 20 mg/kg administered with 1% methylcellulose in water by LC/MS analysis; type: ADME, organism-based; conditions: in vivo
Cytochrome P450 2D6 = Cytochrome P450 2D6 (Homo sapiens, UniProt P10635); assay: Inhibition of CYP2D6; type: ADME
Mus musculus [8] = assay: AUC (0 to t) in CD1 mouse at 20 mg/kg, po administered with 1% methylcellulose in water by LC/MS analysis; type: ADME, organism-based; parameters: dose 20 mg/kg, route oral; conditions: in vivo
[9] = Solubility of the compound in DMSO by chemiluminescent nitrogen detection assay; type: physicochemical
[10] = Cmax in CD1 mouse at 20 mg/kg, po administered with 1% methylcellulose in water by LC/MS analysis; type: ADME, organism-based; parameters: dose 20 mg/kg, route oral; conditions: in vivo
[11] = biological target: T1, Nuclear receptor subfamily 1 group I member 2 (Homo sapiens, UniProt O75469); assay: Activity at PXR at 1 uM
T1 sequence (O75469 whole entry): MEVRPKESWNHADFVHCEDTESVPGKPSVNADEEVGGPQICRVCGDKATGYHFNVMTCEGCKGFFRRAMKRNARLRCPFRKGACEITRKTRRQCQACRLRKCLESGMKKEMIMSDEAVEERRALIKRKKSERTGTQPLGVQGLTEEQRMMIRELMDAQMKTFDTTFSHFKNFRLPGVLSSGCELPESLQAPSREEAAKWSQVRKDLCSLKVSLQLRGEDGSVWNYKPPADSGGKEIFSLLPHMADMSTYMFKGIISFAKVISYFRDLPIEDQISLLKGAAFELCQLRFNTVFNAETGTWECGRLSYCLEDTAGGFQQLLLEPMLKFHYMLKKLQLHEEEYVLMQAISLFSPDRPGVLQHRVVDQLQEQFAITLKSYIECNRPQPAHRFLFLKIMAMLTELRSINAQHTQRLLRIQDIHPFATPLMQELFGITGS

[12] = Clearance in CD1 mouse at 2 mg/kg, iv and 20 mg/kg, po by LC/MS analysis; type: ADME, organism-based; conditions: in vivo
Cytochrome P450 2C19 = Cytochrome P450 2C19 (Homo sapiens, UniProt P33261); assay: Inhibition of CYP2C19; type: ADME
[13] = Half life in CD1 mouse at 2 mg/kg, iv administered with 3% solutol, 7% PEG in saline by LC/MS analysis; type: ADME, organism-based; parameters: dose 2 mg/kg, route intravenous; conditions: in vivo
[14] = Protein binding in mouse plasma; type: ADME, cell-free; conditions: read-out: PPB (converted)
[15] = biological target: 3',5'-cyclic-AMP phosphodiesterase 4B (Homo sapiens) (UniProt Q07343); assay: Activity of PDE4B at 0.3 uM
Cytochrome P450 2C9 = Cytochrome P450 2C9 (Homo sapiens, UniProt P11712); assay: Inhibition of CYP2C9; type: ADME
Cytochrome P450 3A4 = Cytochrome P450 3A4 (Homo sapiens, UniProt P08684); assay: Inhibition of CYP3A4; type: ADME
[16] = Volume of distribution in CD1 mouse at 2 mg/kg, iv and 20 mg/kg, po by LC/MS analysis; type: ADME, organism-based; conditions: in vivo
[17] = biological target: T1, Nuclear receptor subfamily 1 group I member 2; assay: Activity at PXR at 2.5 uM
Plasmodium falciparum [18] = assay: Antiplasmodial activity against Plasmodium falciparum 3D7 by parasite lactate dehydrogenase assay; type: functional, organism-based
[19] = Volume of distribution in CD1 mouse at 2 mg/kg, iv and 20 mg/kg, po by LC/MS analysis; conditions: in vivo
[20] = Protein binding in human plasma; type: ADME, cell-free; conditions: read-out: PPB
[21] = Half life in CD1 mouse at 2 mg/kg, iv administered with 20% encapsine in water by LC/MS analysis; conditions: in vivo
[22] = Clearance in CD1 mouse at 2 mg/kg, iv and 20 mg/kg, po by LC/MS analysis; conditions: in vivo
Mus musculus [23] = assay: AUC (0 to t) in CD1 mouse at 2 mg/kg, iv administered with 20% encapsine in water by LC/MS analysis; conditions: in vivo

Cytochrome P450 2D6, sequence (P10635 whole entry): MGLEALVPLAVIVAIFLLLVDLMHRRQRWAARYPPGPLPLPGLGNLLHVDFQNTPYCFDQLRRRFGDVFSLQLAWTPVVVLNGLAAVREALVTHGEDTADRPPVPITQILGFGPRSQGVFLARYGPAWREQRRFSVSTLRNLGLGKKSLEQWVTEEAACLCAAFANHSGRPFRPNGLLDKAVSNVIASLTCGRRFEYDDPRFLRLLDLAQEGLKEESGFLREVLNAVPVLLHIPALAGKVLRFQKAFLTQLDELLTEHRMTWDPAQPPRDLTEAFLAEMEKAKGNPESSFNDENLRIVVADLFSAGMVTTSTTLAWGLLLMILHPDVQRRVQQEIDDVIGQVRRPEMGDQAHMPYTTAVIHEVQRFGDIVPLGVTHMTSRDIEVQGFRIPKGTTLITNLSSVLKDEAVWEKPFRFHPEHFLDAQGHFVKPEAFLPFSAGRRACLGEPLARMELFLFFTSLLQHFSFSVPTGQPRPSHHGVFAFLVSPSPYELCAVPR
Cytochrome P450 2C19, sequence (P33261 whole entry): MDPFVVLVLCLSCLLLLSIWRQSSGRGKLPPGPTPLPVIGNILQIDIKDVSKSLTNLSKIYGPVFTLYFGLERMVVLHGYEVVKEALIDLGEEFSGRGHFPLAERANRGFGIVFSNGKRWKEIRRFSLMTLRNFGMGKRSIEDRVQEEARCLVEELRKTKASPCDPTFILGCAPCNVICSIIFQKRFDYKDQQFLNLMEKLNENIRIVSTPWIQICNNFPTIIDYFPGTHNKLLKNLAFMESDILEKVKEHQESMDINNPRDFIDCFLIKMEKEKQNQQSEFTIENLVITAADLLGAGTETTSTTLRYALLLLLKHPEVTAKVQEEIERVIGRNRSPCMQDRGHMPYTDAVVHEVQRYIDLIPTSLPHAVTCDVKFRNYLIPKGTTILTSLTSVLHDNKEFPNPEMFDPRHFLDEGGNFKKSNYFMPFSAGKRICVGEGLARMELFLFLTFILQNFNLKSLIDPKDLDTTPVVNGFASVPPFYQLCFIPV
Cytochrome P450 3A4, sequence (P08684 whole entry): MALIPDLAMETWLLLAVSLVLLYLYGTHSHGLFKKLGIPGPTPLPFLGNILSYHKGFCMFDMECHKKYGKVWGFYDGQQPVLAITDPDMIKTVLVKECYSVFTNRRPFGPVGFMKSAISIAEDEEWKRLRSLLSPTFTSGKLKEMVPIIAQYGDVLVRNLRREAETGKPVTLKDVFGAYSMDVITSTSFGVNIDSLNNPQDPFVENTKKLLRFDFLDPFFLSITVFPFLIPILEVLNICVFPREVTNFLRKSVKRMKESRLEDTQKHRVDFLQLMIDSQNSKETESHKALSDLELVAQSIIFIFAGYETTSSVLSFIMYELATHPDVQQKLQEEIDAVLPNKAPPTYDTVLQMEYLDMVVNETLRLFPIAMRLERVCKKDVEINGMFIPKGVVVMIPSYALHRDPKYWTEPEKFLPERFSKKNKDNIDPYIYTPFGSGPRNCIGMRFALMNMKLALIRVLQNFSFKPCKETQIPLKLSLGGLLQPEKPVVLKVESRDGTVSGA
Cytochrome P450 2C9, sequence (P11712 whole entry): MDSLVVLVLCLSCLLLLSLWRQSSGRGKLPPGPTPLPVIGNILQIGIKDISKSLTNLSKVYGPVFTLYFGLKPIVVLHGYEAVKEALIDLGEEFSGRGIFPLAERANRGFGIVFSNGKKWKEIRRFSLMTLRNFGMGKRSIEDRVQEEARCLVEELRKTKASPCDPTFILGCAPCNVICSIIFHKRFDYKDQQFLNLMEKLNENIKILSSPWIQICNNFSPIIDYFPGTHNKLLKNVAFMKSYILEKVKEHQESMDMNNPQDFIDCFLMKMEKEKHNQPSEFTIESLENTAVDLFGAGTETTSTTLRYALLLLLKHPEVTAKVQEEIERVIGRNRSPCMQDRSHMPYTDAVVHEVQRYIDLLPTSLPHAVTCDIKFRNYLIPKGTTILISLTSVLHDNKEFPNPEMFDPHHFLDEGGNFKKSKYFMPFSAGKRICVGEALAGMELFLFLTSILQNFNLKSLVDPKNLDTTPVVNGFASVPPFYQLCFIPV
3',5'-cyclic-AMP phosphodiesterase 4B (Homo sapiens), sequence (Q07343 whole entry): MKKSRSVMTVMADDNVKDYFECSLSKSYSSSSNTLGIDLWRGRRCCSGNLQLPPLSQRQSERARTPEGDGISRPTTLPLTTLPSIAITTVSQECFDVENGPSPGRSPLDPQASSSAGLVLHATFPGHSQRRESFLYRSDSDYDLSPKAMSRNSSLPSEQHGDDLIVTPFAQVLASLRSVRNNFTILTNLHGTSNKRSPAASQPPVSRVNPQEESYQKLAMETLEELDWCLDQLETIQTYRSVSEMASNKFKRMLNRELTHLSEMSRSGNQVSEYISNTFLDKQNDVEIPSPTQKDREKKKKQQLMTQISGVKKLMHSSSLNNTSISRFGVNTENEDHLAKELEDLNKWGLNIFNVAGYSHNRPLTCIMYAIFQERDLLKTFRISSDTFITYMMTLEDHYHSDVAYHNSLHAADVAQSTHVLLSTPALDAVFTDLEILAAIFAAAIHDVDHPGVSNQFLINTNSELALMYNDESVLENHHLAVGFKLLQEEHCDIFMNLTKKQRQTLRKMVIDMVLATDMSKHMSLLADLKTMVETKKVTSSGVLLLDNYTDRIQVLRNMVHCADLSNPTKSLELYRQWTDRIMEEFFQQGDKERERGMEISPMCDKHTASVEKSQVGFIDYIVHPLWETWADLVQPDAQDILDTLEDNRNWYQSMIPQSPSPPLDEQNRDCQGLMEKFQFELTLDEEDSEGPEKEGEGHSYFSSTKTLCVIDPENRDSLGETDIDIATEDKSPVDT

**Q.** For `CC(Oc1ccc(Cl)cc1)C(=O)Nc1cc(C(F)(F)F)ccc1-n1cncn1` (racemic), which half-life at 100 µM [1] is on record?
**A.** 13.6 min

**Q.** And the IC50 (Plasmodium falciparum [2])?
**A.** 394 nM

**Q.** And the half-life at 100 µM [3]?
**A.** 21.8 min

**Q.** What about the CLint (Liver) of the same molecule?
**A.** 4.1 mL/min/g

**Q.** What about the CLint (Liver microsomes) of the same molecule?
**A.** 3.3 mL/min/g

**Q.** And the chromatographic logD [4]?
**A.** 3.84

**Q.** For `CCN(CC)CCCC(C)Nc1ccnc2cc(Cl)ccc12` (configuration not stated) [CHLOROQUINE], which ED50 (Plasmodium falciparum [5]) is on record?
**A.** 2 mg/kg

**Q.** What does the source list for `CC(Oc1ccccc1Cl)C(=O)Nc1cc(C(F)(F)F)ccc1-n1cncn1` (racemic)?
**A.** half-life at 100 µM [1]: 11.7 min; IC50 (Plasmodium falciparum [2]): 190 nM; half-life at 100 µM [3]: > 30 min; CLint (Liver): 5.6 mL/min/g; CLint (Liver microsomes): 1.6 mL/min/g

**Q.** With `O=C(Nc1cc(Cl)ccc1-n1cncn1)C1(c2ccccc2)CC1` as the molecule, how does the IC50 (Plasmodium falciparum [2]) read?
**A.** 1700 nM

**Q.** Which IC50 (Plasmodium falciparum [2]) does the source give for `CC(Oc1cccc(C(F)(F)F)c1)C(=O)Nc1cc(C(F)(F)F)ccc1-n1cncn1` (racemic) here?
**A.** 285 nM

**Q.** Which AUCt (Mus musculus [6]) does the source give for `O=C(Nc1cc(C(F)(F)F)ccc1-n1cncn1)C1(c2cccc(C(F)(F)F)c2)CC1` here?
**A.** 2.23 µg/h/mL

**Q.** And the bioavailability [7]?
**A.** 55%

**Q.** And the INH (Cytochrome P450 2D6)?
**A.** > 10 µM

**Q.** And the AUCt (Mus musculus [8])?
**A.** 13.6 µg/h/mL

**Q.** And the solubility [9]?
**A.** 9 µM (≈ 3.96 µg/mL)

**Q.** And the Cmax [10]?
**A.** 1090 ng/mL

**Q.** And the Activity [11]?
**A.** Active

**Q.** What about the clearance [12] of the same molecule?
**A.** 14.3 mL/min/kg

**Q.** What about the INH (Cytochrome P450 2C19) of the same molecule?
**A.** > 10 µM

**Q.** What about the half-life [13] of the same molecule?
**A.** 612 min

**Q.** What about the fraction unbound [14] of the same molecule?
**A.** 0.006

**Q.** What about the Activity [15] of the same molecule?
**A.** Active

**Q.** And the INH (Cytochrome P450 2C9)?
**A.** 6.3 µM

**Q.** And the INH (Cytochrome P450 3A4)?
**A.** > 10 µM

**Q.** What about the Vd [16] of the same molecule?
**A.** 11.9 L/kg

**Q.** What about the Activity [17] of the same molecule?
**A.** Active

**Q.** What about the ED50 (Plasmodium falciparum [5]) of the same molecule?
**A.** 12 mg/kg

**Q.** What about the ED90 (Plasmodium falciparum [5]) of the same molecule?
**A.** 20 mg/kg

**Q.** Which half-life at 100 µM [1] does the source give for `CC(Oc1ccccc1)C(=O)Nc1cc(C(F)(F)F)ccc1-n1cncn1` (racemic) here?
**A.** 12 min

**Q.** What about the IC50 (Plasmodium falciparum [2]) of the same molecule?
**A.** 897 nM

**Q.** What about the half-life at 100 µM [3] of the same molecule?
**A.** 24.7 min

**Q.** And the CLint (Liver)?
**A.** 5.3 mL/min/g

**Q.** And the CLint (Liver microsomes)?
**A.** 2.9 mL/min/g

**Q.** For `CC(Oc1cccc(Cl)c1)C(=O)Nc1cc(C(F)(F)F)ccc1-n1cncn1` (racemic), which half-life at 100 µM [1] is on record?
**A.** 6.2 min

**Q.** And the IC50 (Plasmodium falciparum [2])?
**A.** 327 nM

**Q.** What about the half-life at 100 µM [3] of the same molecule?
**A.** > 30 min

**Q.** What about the CLint (Liver) of the same molecule?
**A.** 7.9 mL/min/g

**Q.** And the CLint (Liver microsomes)?
**A.** 1.2 mL/min/g

**Q.** For `CC(Oc1ccc(Cl)cc1)C(=O)Nc1cc(C(F)(F)F)ccc1N1CCOCC1` (racemic), which IC50 (Plasmodium falciparum [2]) is on record?
**A.** 439 nM

**Q.** And the chromatographic logD [4]?
**A.** 4.56

**Q.** What does the source list for `Cc1cc(C)n2nc(C(=O)Nc3cc(C(F)(F)F)ccc3N3CCOCC3)nc2n1`?
**A.** IC50 (Plasmodium falciparum [18]): 11 nM; IC50 (Plasmodium falciparum [2]): > 5000 nM

**Q.** For `Cc1ccnc2nc(C(=O)Nc3cc(C(F)(F)F)ccc3N3CCCCC3)nn12`, which IC50 (Plasmodium falciparum [18]) is on record?
**A.** 73 nM

**Q.** And the IC50 (Plasmodium falciparum [2])?
**A.** 3970 nM

**Q.** Which Vd [19] does the source give for `O=C(Nc1cc(C(F)(F)F)ccc1-n1cncn1)C1(c2ccccc2)CC1` here?
**A.** 6.47 L/kg

**Q.** And the bioavailability [7]?
**A.** 81%

**Q.** What about the INH (Cytochrome P450 2D6) of the same molecule?
**A.** > 10 µM

**Q.** What about the AUCt (Mus musculus [8]) of the same molecule?
**A.** 9.71 µg/h/mL

**Q.** What about the solubility [9] of the same molecule?
**A.** 100 µM (≈ 37.2 µg/mL)

**Q.** And the Cmax [10]?
**A.** 2340 ng/mL

**Q.** And the fraction unbound [20]?
**A.** 0.01

**Q.** What about the IC50 (Plasmodium falciparum [2]) of the same molecule?
**A.** 66 nM

**Q.** And the INH (Cytochrome P450 2C19)?
**A.** > 10 µM

**Q.** What about the fraction unbound [14] of the same molecule?
**A.** 0.01

**Q.** What about the half-life [21] of the same molecule?
**A.** 166 min

**Q.** What about the clearance [22] of the same molecule?
**A.** 29.7 mL/min/kg

**Q.** And the INH (Cytochrome P450 2C9)?
**A.** 7.9 µM

**Q.** What about the INH (Cytochrome P450 3A4) of the same molecule?
**A.** > 10 µM

**Q.** And the AUCt (Mus musculus [23])?
**A.** 0.596 µg/h/mL

**Q.** What about the chromatographic logD [4] of the same molecule?
**A.** 3.83

**Q.** And the Activity [17]?
**A.** Active

**Q.** What about the ED50 (Plasmodium falciparum [5]) of the same molecule?
**A.** > 50 mg/kg

**Q.** What about the ED90 (Plasmodium falciparum [5]) of the same molecule?
**A.** > 50 mg/kg
